Measured values: the supplement of paper PMC10307832

Tests used:
Assay in all cases: relative viability (nuclei count vs DMSO), 5 days (fraction); higher = more cells survive
[1] = compound: COc1cc2ncn(-c3cc(OCc4ccccc4C(F)(F)F)c(C(N)=O)s3)c2cc1OC + CS(=O)(=O)N1CCN(Cc2cc3nc(-c4cccc5[nH]ncc45)nc(N4CCOCC4)c3s2)CC1 [Pictilisib] (partner 1 µM)
Procedure, shortened: (§1)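 Relative viability was taken as the ratio of nuclei in treated wells to nuclei in vehicle wells. Lung cancer cell lines in 1536-well plates received compounds by pin tool one day after seeding, either one drug alone or a fixed anchor-drug dose plus five library-drug doses (not always all listed) in √10 steps. Nuclei were counted on 4× images after 5 days of treatment, and values are medians of duplicate plates.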

[2] = compound: COc1cc2ncn(-c3cc(OCc4ccccc4C(F)(F)F)c(C(N)=O)s3)c2cc1OC + COc1cc2c(Oc3ccc(NC(=O)C4(C(=O)Nc5ccc(F)cc5)CC4)cc3F)ccnc2cc1OCCCN1CCOCC1 [Foretinib] (partner 0.25 µM)
Procedure, shortened: as §1

[3] = compound: COc1cc2ncn(-c3cc(OCc4ccccc4C(F)(F)F)c(C(N)=O)s3)c2cc1OC + CC(C)C[C@H](NC(=O)[C@H](Cc1ccccc1)NC(=O)c1cnccn1)B(O)O [Bortezomib] (partner 0.002 µM)
Procedure, shortened: as §1

[4] = compound: COc1cc2ncn(-c3cc(OCc4ccccc4C(F)(F)F)c(C(N)=O)s3)c2cc1OC + CC(=O)c1c(C)c2cnc(Nc3ccc(N4CCNCC4)cn3)nc2n(C2CCCC2)c1=O [Palbociclib] (partner 0.5 µM)
Procedure, shortened: as §1

Cell Line | relative viability ([1]; first compound 0.05 µM) | relative viability ([1]; first compound 0.1581 µM) | relative viability ([1]; first compound 0.5 µM) | relative viability ([1]; first compound 5 µM) | relative viability ([2]; first compound 0.05 µM) | relative viability ([2]; first compound 0.1581 µM) | relative viability ([2]; first compound 0.5 µM) | relative viability ([2]; first compound 5 µM) | relative viability ([3]; first compound 0.05 µM) | relative viability ([3]; first compound 0.1581 µM) | relative viability ([3]; first compound 0.5 µM) | relative viability ([3]; first compound 1.581 µM) | relative viability ([3]; first compound 5 µM) | relative viability ([4]; first compound 0.05 µM) | relative viability ([4]; first compound 0.1581 µM) | relative viability ([4]; first compound 0.5 µM) | relative viability ([4]; first compound 1.581 µM) | relative viability ([4]; first compound 5 µM) | relative viability ([1]; first compound 1.581 µM) | relative viability ([2]; first compound 1.581 µM)
RERF-LC-KJ | 0.557 | 0.692 | 0.269 | 0.185 | 0.957 | 0.901 | 0.791 | 0.625 | 1.14 | 1.12 | 0.67 | 0.357 | 0.558 | 1.03 | 1.16 | 0.71 | 0.616 | 0.46 | – | –
SK-LU-1 | 0.568 | 0.516 | 0.423 | 0.178 | 0.811 | 0.765 | 0.32 | 0.206 | 1.35 | 1.14 | 0.745 | 0.292 | 0.256 | 0.404 | 0.355 | 0.349 | 0.212 | 0.214 | 0.213 | 0.219
SW 1573 | 0.529 | 0.377 | 0.367 | 0.176 | 0.927 | 0.94 | 0.825 | 0.567 | 0.975 | 1.2 | 0.867 | 0.157 | 0.565 | 0.355 | 0.432 | 0.177 | 0.123 | 0.127 | – | 0.157
UMC-11 | 0.727 | 0.81 | 0.226 | 0.121 | 0.893 | 0.836 | 0.156 | 0.145 | 0.634 | 0.596 | 0.119 | 0.131 | 0.0891 | 0.331 | 0.35 | 0.258 | 0.256 | 0.224 | 0.149 | 0.18
